Several values for one entry are separate records, joined by “and”; a condition that tells them apart may be missing. Identical values can stand only once.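 Following 48 hours of exposure in 96-well plates, responses at five concentrations were used to interpolate endpoints linearly. The concentration for 50% growth inhibition is given as GI50. The concentration for full growth arrest is given as TGI.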
Tests used:
Assay in all cases: NCI tumour cell line growth inhibition, 48 h
NCI-H226 lung = system: NCI-H226 lung
MDA-MB-435 = system: MDA-MB-435
UACC-62 melanoma = system: UACC-62 melanoma
HCC-2998 colon = system: HCC-2998 colon
HOP-62 NSCLC = system: HOP-62 NSCLC
SNB-75 CNS = system: SNB-75 CNS
T-47D breast = system: T-47D breast
786-0 renal = system: 786-0 renal

Row | Structure (SMILES) | GI50 (NCI-H226 lung) [µM] | TGI (NCI-H226 lung) | GI50 (MDA-MB-435) [µM] | TGI (MDA-MB-435) | GI50 (UACC-62 melanoma) [µM] | TGI (UACC-62 melanoma) | GI50 (HCC-2998 colon) [µM] | TGI (HCC-2998 colon) [µM] | GI50 (HOP-62 NSCLC) [µM] | TGI (HOP-62 NSCLC) | GI50 (SNB-75 CNS) [µM] | TGI (SNB-75 CNS) | GI50 (T-47D breast) [µM] | TGI (T-47D breast) | GI50 (786-0 renal) [µM] | TGI (786-0 renal)
1 | c1cc(C2CCCCC2)ccc1-c1cnc2nonc2n1 | 1.75 | 4.22 µM | 0.237 | 0.65 µM | 0.393 | 1.96 µM | 1.47 | 2.94 | 1.21 | 5.98 µM | 0.528 | 1.71 µM | 0.631 | 2.78 µM | 0.506 | 1.9 µM
2 | C=C(C)C1CCC2=CC(CC3(C)OC3C3=CC(C(=O)OC)=C(C1)O3)OC2=O (configuration not stated) |  | > 100 µM |  | > 100 µM |  |  |  |  |  | > 100 µM |  | > 100 µM |  | > 100 µM |  | > 100 µM
3 | CC(C)(C)C(=O)c1c(C(F)(F)F)n([O-])c2cc(Cl)c(Cl)cc2[n+]1=O | 1.6 | 3.12 µM | 0.515 | 1.01 µM | 1.46 | 2.77 µM | 0.172 | 0.465 | 1.53 | 2.89 µM | 0.189 | 0.408 µM | 0.613 | 1.29 µM | 0.466 | 0.882 µM
4 | CSc1ccc(NC(=O)Nc2cc(C)ccn2)cc1 |  | > 100 µM |  | > 100 µM |  | > 100 µM |  | > 100 |  | > 100 µM |  | > 100 µM |  | > 100 µM |  | > 100 µM
5 | O=C(N/N=C/c1cc(Cl)ccc1O)c1ccccc1Nc1ccnc(C(F)(F)F)c1 | 0.769 | 7.71 µM | 1.16 | 16.9 µM | 0.331 | 1.75 µM | 0.476 | 17.1 | 0.334 | 3.65 µM | 0.703 | 20.8 µM | 0.633 | 9.62 µM | 0.465 | 4.29 µM
6 | Cc1cc(-c2nc3n(c2/C=N/N=C(N)N)CCS3)c(C)s1 | 18.7 | 37.9 µM | 18.5 | 32.5 µM | 12.9 | 25.5 µM |  |  | 17.5 | 31.3 µM | 29.9 | 48.8 µM | 17.6 | 32.5 µM | 17.1 | 30.8 µM
7 | C(=C\c1ccncc1)/c1ccncc1 | > 100 | > 100 µM | > 100 | > 100 µM | > 100 | > 100 µM |  |  | > 100 | > 100 µM | > 100 | > 100 µM | > 100 | > 100 µM | > 100 | > 100 µM
8 | Oc1ccc(Cl)cc1Sc1cc(Cl)ccc1O | 4.09 | 41.9 µM and 19.2 µM | 2.79 | 23.9 µM and 9.08 µM | 3.24 | 17.1 µM and 10.7 µM | 3.92 | 14.8 | 3.04 | 32.9 µM and 12 µM | 2.94 | 36.4 µM and 10.6 µM | 2.76 | 20.8 µM and 9.93 µM | 11.9 | 33 µM and 25.2 µM
9 | CN(C)CCNC(=O)c1cccc2c1Oc1cccc([N+](=O)[O-])c1O2 |  | 27.9 µM |  | 32.6 µM |  | 33 µM |  | 56.1 |  | 30.6 µM |  | 40.5 µM |  | 27.9 µM |  | 42.6 µM
10 | C[C@@]1(C(=O)O)CCC[C@]2(C)C1CC[C@]13C[C@@](O)(CO)[C@](O)(CC[C@]12O)C3 (some centres not stated) | > 100 | > 100 µM | > 100 | > 100 µM | > 100 | > 100 µM | > 100 | > 100 | > 100 | > 100 µM | > 100 | > 100 µM | > 100 | > 100 µM | > 100 | > 100 µM
11 | CCCCSc1nc(N)c2cn[nH]c2n1 | 15.6 | 36.6 µM | 21 | 41.8 µM | 16.8 | 40.8 µM | 0.22 | 2.26 | 22.5 | 48.8 µM | 26.4 | 69 µM | 8.28 | 52.6 µM | 21.2 | 57.3 µM
12 | COc1ccc(/C=C2\COc3ccc(O)c(O)c3C2=O)cc1OC | 3.91 | 48.1 µM | 1.32 | 3.78 µM | 1.19 | 2.86 µM | 1.76 | 3.31 | 5.98 | 39.3 µM | 1.98 | 29.1 µM | 1.54 | 9.6 µM | 1.51 | 3.87 µM
13 | Cc1c(Cl)cccc1NC(=O)c1sc2nc3c(cc2c1N)C(=O)CCC3 | 0.102 | > 37.1 µM | 0.0203 | 0.0488 µM | 0.0502 | > 100 µM | 0.201 | > 60 | 0.102 | 29.8 µM | 0.0385 | 20.9 µM | 0.055 | > 100 µM | 0.0917 | > 59.4 µM
14 | C[C@@H](CS[As](C)C)C(=O)N1CCC[C@H]1C(=O)O | 0.364 | 1.65 µM | 0.138 | 0.468 µM | 0.207 | 0.855 µM |  |  | 0.897 | 5.11 µM | 0.512 | 2.25 µM | 0.606 | 5.75 µM | 0.0752 | 1.01 µM
15 | CN(C)CC1C(=O)O[C@H]2[C@H]1CC/C(COC(=O)NCc1ccc(Cn3c(=O)sn(CCCI)c3=O)cc1)=C\CC[C@@]1(C)O[C@@H]21 (some centres not stated) | 7.32 | 17.6 µM | 1.13 | 2.73 µM | 1.28 | 3.97 µM | 7.56 | 15.4 | 4.23 | 12.7 µM | 2.73 | 9.51 µM |  |  | 1.1 | 2.43 µM
16 | CCN(CC)S(=O)(=O)c1cccc(-c2ccc3c(NC(=O)C4CC4)n[nH]c3c2)c1 | 3.78 | > 6.25 µM | 0.283 | > 6.25 µM | 2.28 | > 6.25 µM | > 6.25 | > 6.25 | 2.54 | > 6.25 µM | 1.32 | > 6.25 µM | 1.05 | > 6.25 µM | 2.5 | > 6.25 µM
